From the supplement of paper PMC10307832

Tests used:
Assay in all cases: relative viability (nuclei count vs DMSO), 5 days (fraction); higher = more cells survive
JZL-184 = compound: C1CN(CCC1C(C2=CC3=C(C=C2)OCO3)(C4=CC5=C(C=C4)OCO5)O)C(=O)OC6=CC=C(C=C6)[N+](=O)[O-] [JZL-184]
In short: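 After an overnight hold at 37 °C, lung cancer cell lines in 1536-well plates were pinned with five library-drug doses (not always all listed), each √10 from the next, on vehicle-anchored plates. The cells stayed 5 days without fresh medium, then a one-step fix, permeabilisation and Hoechst stain preceded 4× imaging and MetaXpress nuclear counts. A plate passed only with control CV under 25% and at least one doubling. Viability is the median, over plates, of treated-well nuclei relative to vehicle-well nuclei.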

JZL-184 + Navitoclax = compound: C1CN(CCC1C(C2=CC3=C(C=C2)OCO3)(C4=CC5=C(C=C4)OCO5)O)C(=O)OC6=CC=C(C=C6)[N+](=O)[O-] [JZL-184] + CC1(C)CCC(c2ccc(Cl)cc2)=C(CN2CCN(c3ccc(C(=O)NS(=O)(=O)c4ccc(N[C@H](CCN5CCOCC5)CSc5ccccc5)c(S(=O)(=O)C(F)(F)F)c4)cc3)CC2)C1 [Navitoclax] (partner 0.5 µM)
In short: (§1)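 Lung cancer cell lines were seeded in 1536-well plates and dosed by pin tool the next day, with either a single drug or a fixed anchor-drug dose combined with five library-drug doses (not always all listed) spaced in √10 steps. Five days later, one step fixed the cells and stained their nuclei (final 0.05% Triton X-100, 1% formaldehyde, 1 ug/ml Hoechst), and nuclei were counted on 4× images. Relative viability is the nuclei count in treated wells divided by the count in vehicle wells, and each value is the median of duplicate plates.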

JZL-184 + Lapatinib = compound: C1CN(CCC1C(C2=CC3=C(C=C2)OCO3)(C4=CC5=C(C=C4)OCO5)O)C(=O)OC6=CC=C(C=C6)[N+](=O)[O-] [JZL-184] + CS(=O)(=O)CCNCc1ccc(-c2ccc3ncnc(Nc4ccc(OCc5cccc(F)c5)c(Cl)c4)c3c2)o1 [Lapatinib] (partner 2 µM)
In short: as §1

JZL-184 + Dasatinib = compound: C1CN(CCC1C(C2=CC3=C(C=C2)OCO3)(C4=CC5=C(C=C4)OCO5)O)C(=O)OC6=CC=C(C=C6)[N+](=O)[O-] [JZL-184] + Cc1nc(Nc2ncc(C(=O)Nc3c(C)cccc3Cl)s2)cc(N2CCN(CCO)CC2)n1 [Dasatinib] (partner 0.075 µM)
In short: as §1

JZL-184 + Vorinostat = compound: C1CN(CCC1C(C2=CC3=C(C=C2)OCO3)(C4=CC5=C(C=C4)OCO5)O)C(=O)OC6=CC=C(C=C6)[N+](=O)[O-] [JZL-184] + O=C(CCCCCCC(=O)Nc1ccccc1)NO [Vorinostat] (partner 1 µM)
In short: as §1

| Cell Line | relative viability (JZL-184; 0.04 µM) | relative viability (JZL-184; 0.4 µM) | relative viability (JZL-184; 1.265 µM) | relative viability (JZL-184; 4 µM) | relative viability (JZL-184 + Navitoclax; first compound 0.04 µM) | relative viability (JZL-184 + Navitoclax; first compound 0.4 µM) | relative viability (JZL-184 + Navitoclax; first compound 1.265 µM) | relative viability (JZL-184 + Navitoclax; first compound 4 µM) | relative viability (JZL-184 + Lapatinib; first compound 0.04 µM) | relative viability (JZL-184 + Lapatinib; first compound 0.4 µM) | relative viability (JZL-184 + Lapatinib; first compound 1.265 µM) | relative viability (JZL-184 + Lapatinib; first compound 4 µM) | relative viability (JZL-184 + Dasatinib; first compound 0.04 µM) | relative viability (JZL-184 + Dasatinib; first compound 0.4 µM) | relative viability (JZL-184 + Dasatinib; first compound 1.265 µM) | relative viability (JZL-184 + Dasatinib; first compound 4 µM) | relative viability (JZL-184 + Vorinostat; first compound 0.04 µM) | relative viability (JZL-184 + Vorinostat; first compound 0.4 µM) | relative viability (JZL-184 + Vorinostat; first compound 1.265 µM) | relative viability (JZL-184 + Vorinostat; first compound 4 µM) |
| --- | --- | --- | --- | --- | --- | --- | --- | --- | --- | --- | --- | --- | --- | --- | --- | --- | --- | --- | --- | --- |
| LC-2-ad | 1.18 | 0.96 | 1.13 | 0.982 | 0.467 | 0.248 | 0.491 | 0.369 | 1.19 | 0.889 | 1.05 | 0.952 | 0.815 | 0.496 | 0.815 | 0.463 | 0.774 | 0.67 | 0.676 | 0.669 |
| HCC-78 | 0.793 | 0.806 | 1.13 | 1.01 | 0.709 | 0.75 | 0.724 | 0.551 | 0.634 | 0.787 | 0.755 | 0.302 | 0.276 | 0.359 | 0.391 | 0.301 | 0.405 | – | 0.492 | 0.378 |
| LOU-NH91 | 1.02 | 0.879 | 0.984 | 0.945 | 0.763 | 0.71 | 0.886 | 0.718 | 0.783 | 0.741 | 0.845 | 0.727 | 0.612 | 0.544 | 0.605 | 0.567 | 1.02 | 0.893 | 1.03 | 0.893 |
| NCI-H1734 | 1.12 | 0.865 | 1.03 | 0.963 | 0.991 | 0.799 | 0.901 | 0.843 | 1.22 | 0.959 | 1.15 | 1.04 | 0.503 | 0.425 | 0.442 | 0.453 | 0.927 | 0.762 | 0.844 | 0.834 |
